Where “and” joins values, the source holds several entries; their conditions need not be identical. Equal entries are not always repeated.
Tested on: peripheral blood lymphocytes
Experiment: Cytokinesis-block micronucleus (CBMN) assay, NNK-treated lymphocyte cultures of lung cancer cases and controls
Format: cell-based, human
Parameters: Control Subjects, % with ≧5 NNK-induced MN / Control Subjects, % with 0 or 2 NNK-induced NPBs / Control Subjects, % with 3 or 5 NNK-induced NPBs / Control Subjects, % with 1 NNK-induced NBUDs: concentration or dose not given beside the values; Control Subjects, % with 3 or 4 NNK-induced MN: tested at 0.24 mM
Settings: for NNK-induced MN, Mean ± SE / NNK-induced MN, Median / NNK-induced NBUDs, Mean ± SE / NNK-induced NBUDs, Median / NNK-induced NPBs, Mean ± SE / NNK-induced NPBs, Median: 0.24 mM NNK
Protocol: The CBMN test was performed using the cytochalasin B technique described by Fenech and Morley (22) and following recommendations from The International Collaborative Project on Micronucleus Frequency in Human Populations (HUMN Project) to measure MN, NPBs and NBUDs in untreated cells and NNK-treated cells (27). Duplicate lymphocyte cultures were prepared for each study subject. Each culture contained 2.0×10^6 cells in 5 mL RPMI 1640 medium supplemented with 100 U/mL penicillin, 100 μg/mL streptomycin, 10% fetal bovine serum, and 2 mM L-glutamine (Gibco-Invitrogen, Carlsbad, Calif.) and 1% phytohemagglutinin (Remel, Lenexa, Kans.). For the cultures treated with NNK, 24 hours after initiation, the PBLs were centrifuged and the supernatant growth medium was removed and reserved. The PBLs were resuspended in 5 mL of serum-free RPMI 1640 medium supplemented with 0.24 mM NNK (a dose previously used by us and others (23-26) (CAS No. 64091-91-4, National Cancer Institute, Midwest Carcinogen Repository, Kansas City, Mo.; purity>98%) and incubated at 37° C. in the presence of 5% CO2 for 2 hours.
Next, the PBLs were washed twice with serum-free RPMI 1640, transferred to clean tubes and re-incubated for […] in the reserved supernatant. At 44 hours after initiation, cells were blocked in cytokinesis by adding cytochalasin B (Sigma, St. Louis, Mo.; final concentration 4 µg/mL). Similarly, cultures for the determination of spontaneous damage (untreated cells) were handled in the same manner, with the exception of treatment with NNK. The total incubation time for all cultures was 72 hours. After incubation, the cells were fixed in 3:1 methanol:glacial acetic acid, dropped onto clean microscopic slides, air-dried and stained with Giemsa stain. For each sample, 1000 binucleated cells were scored blindly using a Nikon E-400 light optical microscope following the scoring criteria outlined by HUMN Project (2,22,27); the numbers of MN, NPBs, and NBUDs per 1000 binucleated cells were recorded. For quality control, 20% of the slides were randomly selected and blindly rescored and the results compared with the original scoring.

[1] = Case, History of Alcohol Use No
[2] = Case, History of Alcohol Use Yes
[3] = Control, History of Alcohol Use No
[4] = Control, History of Alcohol Use Yes
[5] = MN/1000 binucleated cells, 130 controls
[6] = MN/1000 binucleated cells, 139 cases
[7] = lymphocytes from patients with lung cancer vs controls
[8] = per 1000 binucleated cells, 130 controls
[9] = per 1000 binucleated cells, 139 cases

## CN(CCCC(=O)c1cccnc1)N=O [NNK, 4-(methylnitrosamino)-1-(3-pyridyl)-1-butanone]
Case, Age > 62
  NNK-induced MN, Mean ± SE: 4.54 ± 0.22 per 1000 binucleated cells
  NNK-induced MN, Median: 4.0 per 1000 binucleated cells
  NNK-induced NBUDs, Mean ± SE: 0.90 ± 0.17 per 1000 binucleated cells
  NNK-induced NBUDs, Median: 1.0 per 1000 binucleated cells
  NNK-induced NPBs, Mean ± SE: 8.15 ± 0.33 per 1000 binucleated cells
  NNK-induced NPBs, Median: 8.0 per 1000 binucleated cells
Case, Age ≦ 62
  NNK-induced MN, Mean ± SE: 4.22 ± 0.11 per 1000 binucleated cells
  NNK-induced MN, Median: 4.0 per 1000 binucleated cells
  NNK-induced NBUDs, Mean ± SE: 1.12 ± 0.11 per 1000 binucleated cells
  NNK-induced NBUDs, Median: 1.0 per 1000 binucleated cells
  NNK-induced NPBs, Mean ± SE: 8.11 ± 0.23 per 1000 binucleated cells
  NNK-induced NPBs, Median: 8.0 per 1000 binucleated cells
Case, Females
  NNK-induced MN, Mean ± SE: 4.19 ± 0.17 per 1000 binucleated cells
  NNK-induced MN, Median: 4.0 per 1000 binucleated cells
  NNK-induced NBUDs, Mean ± SE: 1.07 ± 0.12 per 1000 binucleated cells
  NNK-induced NBUDs, Median: 1.0 per 1000 binucleated cells
  NNK-induced NPBs, Mean ± SE: 8.24 ± 0.32 per 1000 binucleated cells
  NNK-induced NPBs, Median: 8.0 per 1000 binucleated cells
[1]
  NNK-induced MN, Mean ± SE: 4.26 ± 0.14 per 1000 binucleated cells
  NNK-induced MN, Median: 4.00 per 1000 binucleated cells
  NNK-induced NBUDs, Mean ± SE: 1.09 ± 0.18 per 1000 binucleated cells
  NNK-induced NBUDs, Median: 1.00 per 1000 binucleated cells
  NNK-induced NPBs, Mean ± SE: 8.04 ± 0.32 per 1000 binucleated cells
  NNK-induced NPBs, Median: 8.00 per 1000 binucleated cells
[2]
  NNK-induced MN, Mean ± SE: 4.37 ± 0.14 per 1000 binucleated cells
  NNK-induced MN, Median: 4.00 per 1000 binucleated cells
  NNK-induced NBUDs, Mean ± SE: 1.04 ± 0.11 per 1000 binucleated cells
  NNK-induced NBUDs, Median: 1.00 per 1000 binucleated cells
  NNK-induced NPBs, Mean ± SE: 8.14 ± 0.24 per 1000 binucleated cells
  NNK-induced NPBs, Median: 8.00 per 1000 binucleated cells
Case, Males
  NNK-induced MN, Mean ± SE: 4.37 ± 0.13 per 1000 binucleated cells
  NNK-induced MN, Median: 4.0 per 1000 binucleated cells
  NNK-induced NBUDs, Mean ± SE: 1.07 ± 0.11 per 1000 binucleated cells
  NNK-induced NBUDs, Median: 1.0 per 1000 binucleated cells
  NNK-induced NPBs, Mean ± SE: 8.07 ± 0.23 per 1000 binucleated cells
  NNK-induced NPBs, Median: 8.0 per 1000 binucleated cells
Case, Overall
  NNK-induced MN, Mean ± SE: 4.32±0.10 per 1000 binucleated cells
  NNK-induced MN, Median: 4.0 per 1000 binucleated cells
  NNK-induced NBUDs, Mean ± SE: 1.07±0.09 per 1000 binucleated cells
  NNK-induced NBUDs, Median: 1.0 per 1000 binucleated cells
  NNK-induced NPBs, Mean ± SE: 8.12±0.19 per 1000 binucleated cells
  NNK-induced NPBs, Median: 8.0 per 1000 binucleated cells
Case, Years smoked > 32
  NNK-induced MN, Mean ± SE: 4.33 ± 0.10 per 1000 binucleated cells
  NNK-induced MN, Median: 4.0 per 1000 binucleated cells
  NNK-induced NBUDs, Mean ± SE: 1.08 ± 0.01 per 1000 binucleated cells
  NNK-induced NBUDs, Median: 1.0 per 1000 binucleated cells
  NNK-induced NPBs, Mean ± SE: 8.07 ± 0.19 per 1000 binucleated cells
  NNK-induced NPBs, Median: 8.0 per 1000 binucleated cells
Case, Years smoked ≦ 32
  NNK-induced MN, Mean ± SE: 3.63 ± 0.32 per 1000 binucleated cells
  NNK-induced MN, Median: 4.0 per 1000 binucleated cells
  NNK-induced NBUDs, Mean ± SE: 1.13 ± 0.44 per 1000 binucleated cells
  NNK-induced NBUDs, Median: 1.0 per 1000 binucleated cells
  NNK-induced NPBs, Mean ± SE: 9.25 ± 0.96 per 1000 binucleated cells
  NNK-induced NPBs, Median: 8.3 per 1000 binucleated cells
Control, Age > 62
  NNK-induced MN, Mean ± SE: 2.75 ± 0.15 per 1000 binucleated cells
  NNK-induced MN, Median: 3.0 per 1000 binucleated cells
  NNK-induced NBUDs, Mean ± SE: 0.10 ± 0.05 per 1000 binucleated cells
  NNK-induced NBUDs, Median: 0.0 per 1000 binucleated cells
  NNK-induced NPBs, Mean ± SE: 2.35 ± 0.14 per 1000 binucleated cells
  NNK-induced NPBs, Median: 2.0 per 1000 binucleated cells
Control, Age ≦ 62
  NNK-induced MN, Mean ± SE: 2.58 ± 0.14 per 1000 binucleated cells
  NNK-induced MN, Median: 2.0 per 1000 binucleated cells
  NNK-induced NBUDs, Mean ± SE: 0.13 ± 0.04 per 1000 binucleated cells
  NNK-induced NBUDs, Median: 0.0 per 1000 binucleated cells
  NNK-induced NPBs, Mean ± SE: 2.41 ± 0.11 per 1000 binucleated cells
  NNK-induced NPBs, Median: 2.0 per 1000 binucleated cells
Control, Females
  NNK-induced MN, Mean ± SE: 2.51 ± 0.23 per 1000 binucleated cells
  NNK-induced MN, Median: 2.0 per 1000 binucleated cells
  NNK-induced NBUDs, Mean ± SE: 0.11 ± 0.05 per 1000 binucleated cells
  NNK-induced NBUDs, Median: 1.0 per 1000 binucleated cells
  NNK-induced NPBs, Mean ± SE: 2.68 ± 0.19 per 1000 binucleated cells
  NNK-induced NPBs, Median: 2.0 per 1000 binucleated cells
[3]
  NNK-induced MN, Mean ± SE: 2.54 ± 0.15 per 1000 binucleated cells
  NNK-induced MN, Median: 3.00 per 1000 binucleated cells
  NNK-induced NBUDs, Mean ± SE: 0.14 ± 0.04 per 1000 binucleated cells
  NNK-induced NBUDs, Median: 0.00 per 1000 binucleated cells
  NNK-induced NPBs, Mean ± SE: 2.40 ± 0.13 per 1000 binucleated cells
  NNK-induced NPBs, Median: 2.00 per 1000 binucleated cells
[4]
  NNK-induced MN, Mean ± SE: 2.61 ± 0.15 per 1000 binucleated cells
  NNK-induced MN, Median: 2.00 per 1000 binucleated cells
  NNK-induced NBUDs, Mean ± SE: 0.11 ± 0.04 per 1000 binucleated cells
  NNK-induced NBUDs, Median: 0.00 per 1000 binucleated cells
  NNK-induced NPBs, Mean ± SE: 2.32 ± 0.12 per 1000 binucleated cells
  NNK-induced NPBs, Median: 2.00 per 1000 binucleated cells
Control, Males
  NNK-induced MN, Mean ± SE: 2.63 ± 0.11 per 1000 binucleated cells
  NNK-induced MN, Median: 3.0 per 1000 binucleated cells
  NNK-induced NBUDs, Mean ± SE: 0.12 ± 0.03 per 1000 binucleated cells
  NNK-induced NBUDs, Median: 0.0 per 1000 binucleated cells
  NNK-induced NPBs, Mean ± SE: 2.27 ± 0.10 per 1000 binucleated cells
  NNK-induced NPBs, Median: 2.0 per 1000 binucleated cells
Control, Overall
  NNK-induced MN, Mean ± SE: 2.62±0.10 per 1000 binucleated cells and 2.62 ± 0.1 per 1000 binucleated cells
  NNK-induced MN, Median: 3.0 per 1000 binucleated cells and 3 per 1000 binucleated cells
  NNK-induced NBUDs, Mean ± SE: 0.12±0.03 per 1000 binucleated cells
  NNK-induced NBUDs, Median: 0.0 per 1000 binucleated cells and 0 per 1000 binucleated cells
  NNK-induced NPBs, Mean ± SE: 2.38±0.09 per 1000 binucleated cells
  NNK-induced NPBs, Median: 2.0 per 1000 binucleated cells and 2 per 1000 binucleated cells
Control, Years smoked > 32
  NNK-induced MN, Mean ± SE: 2.69 ± 0.12 per 1000 binucleated cells
  NNK-induced MN, Median: 3.0 per 1000 binucleated cells
  NNK-induced NBUDs, Mean ± SE: 0.13 ± 0.04 per 1000 binucleated cells
  NNK-induced NBUDs, Median: 0.0 per 1000 binucleated cells
  NNK-induced NPBs, Mean ± SE: 2.39 ± 0.09 per 1000 binucleated cells
  NNK-induced NPBs, Median: 2.0 per 1000 binucleated cells
Control, Years smoked ≦ 32
  NNK-induced MN, Mean ± SE: 2.33 ± 1.02 per 1000 binucleated cells
  NNK-induced MN, Median: 2.0 per 1000 binucleated cells
  NNK-induced NBUDs, Mean ± SE: 0.06 ± 0.04 per 1000 binucleated cells
  NNK-induced NBUDs, Median: 0.0 per 1000 binucleated cells
  NNK-induced NPBs, Mean ± SE: 2.36 ± 0.19 per 1000 binucleated cells
  NNK-induced NPBs, Median: 2.0 per 1000 binucleated cells
[5]
  Control Subjects, % with 1 or 2 NNK-induced MN: 49% and 49.2%
  Control Subjects, % with 3 or 4 NNK-induced MN: 44.6%
  Control Subjects, % with ≧5 NNK-induced MN: 6% and 6.2%
  Control Subjects, No. with 1 or 2 NNK-induced MN: 64
  Control Subjects, No. with 3 or 4 NNK-induced MN: 58
  Control Subjects, No. with ≧5 NNK-induced MN: 8
[6]
  Case Patients, % with 1 or 2 NNK-induced MN: 4% and 3.6%
  Case Patients, % with 3 or 4 NNK-induced MN: 56.1%
  Case Patients, No. with 1 or 2 NNK-induced MN: 5
  Case Patients, No. with 3 or 4 NNK-induced MN: 78
  Case Patients, No. with ≧5 NNK-induced MN: 56
[7]
  Increase in NNK-induced MN frequency, lung cancer patients over controls: 1.6 fold
  Increase in NNK-induced NBUD frequency, lung cancer patients over controls: 8.9 fold
  Increase in NNK-induced NPB frequency, lung cancer patients over controls: 3.4 fold
[8]
  Control Subjects, % with 0 NNK-induced NBUDs: 87% and 86.9%
  Control Subjects, % with 0 or 2 NNK-induced NPBs: 65% and 64.6%
  Control Subjects, % with 1 NNK-induced NBUDs: 11.5%
  Control Subjects, % with 3 or 5 NNK-induced NPBs: 35.4%
  Control Subjects, No. with 0 NNK-induced NBUDs: 113
  Control Subjects, No. with 0 or 2 NNK-induced NPBs: 84
  Control Subjects, No. with 1 NNK-induced NBUDs: 15
  Control Subjects, No. with 3 or 5 NNK-induced NPBs: 46
  Control Subjects, No. with ≧2 NNK-induced NBUDs: 2
  Control Subjects, No. with ≧6 NNK-induced NPBs: 0
[9]
  Case Patients, % with 0 NNK-induced NBUDs: 35% and 34.5%
  Case Patients, % with 1 NNK-induced NBUDs: 42.5%
  Case Patients, % with 3 or 5 NNK-induced NPBs: 10.8%
  Case Patients, No. with 0 NNK-induced NBUDs: 48
  Case Patients, No. with 0 or 2 NNK-induced NPBs: 0
  Case Patients, No. with 1 NNK-induced NBUDs: 59
  Case Patients, No. with 3 or 5 NNK-induced NPBs: 15
  Case Patients, No. with ≧2 NNK-induced NBUDs: 32
  Case Patients, No. with ≧6 NNK-induced NPBs: 124
